Here are results for 28 molecules from patent US20100249123A1, “NOVEL BENZAMIDE DERIVATIVES AS MODULATORS OF THE FOLLICLE STIMULATING HORMONE” (ADDEX PHARMA SA, priority 2007, published 2010).

The experiment deals with T1, rat follicle stimulating hormone receptor (rFSHR) (Rattus norvegicus, UniProt P20395).
T1 construct: expressed in transfected cells
T1 sequence (P20395 18-692): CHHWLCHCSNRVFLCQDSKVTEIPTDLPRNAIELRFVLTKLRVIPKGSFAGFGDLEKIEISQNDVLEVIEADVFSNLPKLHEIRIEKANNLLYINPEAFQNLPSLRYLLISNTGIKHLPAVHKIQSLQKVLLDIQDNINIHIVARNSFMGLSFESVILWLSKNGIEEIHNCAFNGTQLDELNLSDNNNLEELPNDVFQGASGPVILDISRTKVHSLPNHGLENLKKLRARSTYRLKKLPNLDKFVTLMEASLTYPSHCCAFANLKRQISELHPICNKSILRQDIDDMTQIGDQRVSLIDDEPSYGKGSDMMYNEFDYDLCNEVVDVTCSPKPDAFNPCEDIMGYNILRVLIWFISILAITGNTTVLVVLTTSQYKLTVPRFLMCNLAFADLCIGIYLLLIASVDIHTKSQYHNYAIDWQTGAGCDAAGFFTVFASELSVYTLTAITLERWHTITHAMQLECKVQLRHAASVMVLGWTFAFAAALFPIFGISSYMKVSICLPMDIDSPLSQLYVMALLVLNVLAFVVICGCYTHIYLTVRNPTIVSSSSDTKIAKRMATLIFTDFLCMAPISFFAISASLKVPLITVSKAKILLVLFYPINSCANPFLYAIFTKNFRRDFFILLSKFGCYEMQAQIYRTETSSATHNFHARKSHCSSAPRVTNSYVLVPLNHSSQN
As to the kind of experiment: Intracellular cAMP measurement (HTRF) assay, antagonism of EC70 of hFSH. Format: cell-based. The conditions noted are these: HEK293 cells expressing rFSHR, 1 ng/ml hFSH (EC70), read-out: Class (IC50 to antagonise an EC70 of FSH receptors agonist such as hFSH). The text has this:
Intracellular cAMP Measurement Assay
The Intracellular cAMP measurement assay is a functional cell-based assay used to study GPCR function. This method relies on a Time-Resolved Fluorescence (HTRF) assay to measure the cAMP accumulation upon receptor-mediated Gs protein activation in cells expressing recombinant GPCR or in cells from native tissues. In brief, this method is a competitive immunoassay between native cAMP produced by cells and the cAMP labeled with a fluorescent tag. The endogenously produced cAMP competes with exogenous added d2-labelled cAMP for the cAMP binding site on a Eu3+ cryptate labelled anti-cAMP antibody. The d2-labelled cAMP and the Eu^3+ labelled antibody produces a basal fluroresence via HTRF and therefore an intracellular increase in unlabelled cAMP is detected as decrease in this signal. cAMP is one of the most important intracellular mediators. Its concentration in cells can be increased upon binding of many hormones to their receptors. The most studied pathway consists in the release of α-subunit GTP-binding proteins following ligand-receptor interaction, which in turn activates or inhibits the ATP/cAMP conversion function of adenylate cyclase enzyme. cAMP is then involved in many complex regulatory processes such as protein kinase activation or ion channel gating. This method is widely used to study receptor activation of G protein in cells over-expressing GPCRs or in native cells, including FSH receptors expressing cells (Gabriel et al., Assay Drug Dev. Technol., 1, 291-303, 2003).
Transfection and cell culture: The cDNA encoding the rat follicle stimulating hormone receptor (rFSHR), (accession number NM_199237, NCBI Nucleotide database browser) was subcloned into an expression vector containing also the hygromycin resistance gene. Transfection of this vector into HEK293 cells with PolyFect reagent (Qiagen) according to supplier's protocol, and hygromycin treatment allowed selection of antibiotic resistant cells which had integrated stably one or more copies of the plasmid. Positive cellular clones expressing rFSHR were identified in a functional assay measuring cAMP production in cells following stimulation by addition of purified human follicle stimulating hormone (hFSH).
HTRF cAMP assay: On the day of the experiment, cells were detached from the Petri dish and distributed in a low volume, black-walled 384-well plate at a density of 5,000 cells/well in an assay buffer containing 1 mM IBMX to prevent cAMP degradation by cytoplasmic phosphodiesterases. The determination of the cAMP accumulation was performed using an HTRF assay (Trinquet et al., Anal. Biochem., 358, 126-135, 2006). Briefly, cells were incubated for 3 min in the presence of increasing concentrations of negative allosteric modulators (from 1 nM to 60 μM) and then 30 min in the presence of 1 ng/ml of hFSH, an agonist of rat FSH receptor, that has been determined in previous experiments to correspond to the EC70, a concentration that gives 70% of the maximal response of the agonist, and is in accordance with published data (Fox et al., Mol. Endocrin., 15, 378-389, 2001). […] Cells were then lysed by adding the HTRF assay components, the europium cryptate-labeled anti-cAMP antibody, and the XL665-labeled cAMP analog, previously diluted in a HEPES buffer (50 mM, pH 7.0) containing 0.8 M potassium fluoride, 0.2% (w/v) BSA, and 1% (v/v) Triton X-100, a percentage of detergent that ensure complete cell lysis. Assay was then incubated for 1 hr at room temperature, and HTRF signal was measured after excitation at 337 nm, and dual emission at 620 and 665 nm, using a RubyStar fluorimeter (BMG Labtechnologies). Moreover, the fluorescence ratio of an appropriate range of known concentrations of cAMP standards was also included on each assay plate to produce a standard cAMP curve. […]
For orientation: Time-resolved FRET reads energy transfer from a long-lived donor to a nearby acceptor.
One may read the IC50 as the midpoint of a concentration-inhibition curve. For `COc1ccc(C(=O)Nc2ccc(C(C)(C)CNC(=O)c3cnc4[nH]ccc4c3)cc2)cc1OC` [Example 202], the IC50 was below 150 nM.

As for `COc1ccc(C(=O)Nc2cccc(C3(CNC(=O)c4nn(C)c5ccccc45)CCCC3)c2)cc1OC` [Example 102, 1-Methyl-1H-indazole-3-carboxylic acid{1-[3-(3,4-dimethoxy-benzoylamino)-phenyl]-cyclopentylmethyl}-amide], the IC50 was at least 1000 nM.

For `COc1ccc(C(=O)Nc2ccc(C(C)(C)C#N)c(-c3cccs3)c2)cc1OC` [Example 206, N-[4-(Cyano-dimethyl-methyl)-3-thiophen-2-yl-phenyl]-3,4-dimethoxy-benzamide], the IC50 was below 150 nM.

As for `COc1ccc(C(=O)Nc2ccc(C(C)(C)C#N)c(-c3cccnc3)c2)cc1OC` [Example 132, N-[4-(Cyano-dimethyl-methyl)-3-pyridin-3-yl-phenyl]-3,4-dimethoxy-benzamide], the IC50 lay within 150 to 400 nM.

Turning to `COc1ccc(C(=O)Nc2ccc(C(C)(C)CCNC(=O)c3cnc4[nH]cnc4c3)cc2)cc1OC` [Example 199, 3H-Imidazo[4,5-b]pyridine-6-carboxylic acid {3-[4-(3,4-dimethoxy-benzoylamino)-phenyl]-3-methyl-butyl}-amide], the IC50 lay in the range of 150 to 400 nM.

On to `COc1ccc(C(=O)Nc2ccc(C(C)(C)CNC(=O)c3c[nH]c4cnccc34)cc2)cc1OC` [Example 215], for which the 50% inhibitory concentration (IC50) was in the range of 400 to 1000 nM.

`COc1ccc(C(=O)Nc2ccc(C(C)(C)CNC(=O)c3cn(CCCN(C)C)c4ccc(F)cc34)cc2)cc1OC` [Example 192, 1-(3-Dimethylamino-propyl)-5-fluoro-1H-indole-3-carboxylic acid {2-[4-(3,4-dimethoxy-benzoylamino)-phenyl]-2-methyl-propyl}-amide]: the 50% inhibitory concentration (IC50) is at least 1000 nM.

In the case of `COc1ccc(C(=O)Nc2ccc(C(C)(C)C#N)c(-c3cnn(C)c3)c2)cc1OC` [Example 205, N-[4-(Cyano-dimethyl-methyl)-3-(1-methyl-1H-pyrazol-4-yl)-phenyl]-3,4-dimethoxy-benzamide], the 50% inhibitory concentration (IC50) was in the range of 400 to 1000 nM.

As to `COc1ccc(C(=O)Nc2ccc(C(C)(C)CNC(=O)c3ccccn3)cc2)cc1OC` [Example 74], the IC50 was 150 to 400 nM.

With `COc1ccc(C(=O)Nc2ccc(C(C)(C)C#N)c(-c3ccccn3)c2)cc1OC` [Example 183, N-[4-(Cyano-dimethyl-methyl)-3-pyridin-2-yl-phenyl]-3,4-dimethoxy-benzamide], the IC50 is at least 1000 nM.

For the molecule `COc1ccc(C(=O)Nc2ccc(C(C)(C)CNC(=O)c3n[nH]c4ccccc34)c(Cl)c2)cc1OC` [Example 113, 1H-Indazole-3-carboxylic acid{2-[2-chloro-4-(3,4-dimethoxy-benzoylamino)-phenyl]-2-methyl-propyl}-amide], the half-maximal inhibitory concentration (IC50) lay within 150 to 400 nM.

For the molecule `COc1ccc(C(=O)Nc2ccc(C(C)(C)C#N)c(N3CCOCC3)c2)cc1OC` [Example 204, N-[4-(Cyano-dimethyl-methyl)-3-morpholin-4-yl-phenyl]-3,4-dimethoxy-benzamide], the IC50 is at least 1000 nM.

As to “1H-Pyrrolo[2,3-b]pyridine-5-carboxylic acid {2-[4-(3,4-dimethoxy-benzoylamino)-phenyl]-2-methyl-propyl}-amide [Example 201]”, the concentration for half-maximal inhibition (IC50) fell in the range of 150 to 400 nM.

Consider `COc1ccc(C(=O)Nc2cc(Cl)c(C(C)(C)C#N)c(Cl)c2)cc1OC` [Example 120, N-[3,5-Dichloro-4-(cyano-dimethyl-methyl)-phenyl]-3,4-dimethoxy-benzamide], for which the IC50 fell in the range of 150 to 400 nM.

Turning to `CCc1cc(NC(=O)c2ccc(OC)c(OC)c2)ccc1C(C)(C)C#N` [Example 133, N-[4-(Cyano-dimethyl-methyl)-3-ethyl-phenyl]-3,4-dimethoxy-benzamide], the concentration for half-maximal inhibition (IC50) was below 150 nM.

Turning to `COc1ccc(C(=O)Nc2ccc(C(C)(C)CNC(=O)c3ccc4[nH]c(C)nc4c3)cc2)cc1OC` [Example 208], the 50% inhibitory concentration (IC50) fell in the range of 400 to 1000 nM.

As for `COc1ccc(C(=O)Nc2ccc(C(C)(C)CNC(=O)c3ccc4c(c3)nc(C)n4C)cc2)cc1OC` [Example 209], the IC50 was at least 1000 nM.

With `COc1ccc(C(=O)Nc2ccc(C(C)(C)CNC(=O)c3cn(C(C)=O)c4ccccc34)cc2)cc1OC` [Example 104, 1-Acetyl-1H-indole-3-carboxylic acid{2-[4-(3,4-dimethoxy-benzoylamino)-phenyl]-2-methyl-propyl}-amide], the 50% inhibitory concentration (IC50) was 400 to 1000 nM.

On to `COc1ccc(C(=O)Nc2ccc(Cl)c(C(C)(C)C#N)c2)cc1OC` [Example 125, N-[4-Chloro-3-(cyano-dimethyl-methyl)-phenyl]-3,4-dimethoxy-benzamide], for which the IC50 was at least 1000 nM.

With `COc1ccc(C(=O)Nc2ccc(C(C)(C)CNC(=O)c3c[nH]c4ccccc34)cc2)cc1OC` [Example 101, 1H-Indole-3-carboxylic acid{2-[4-(3,4-dimethoxy-benzoylamino)-phenyl]-2-methyl-propyl}-amide], the IC50 lay in the range of 150 to 400 nM.

`COc1ccc(C(=O)Nc2ccc(C(C)(C)CNC(=O)c3cnc4ncccn34)cc2)cc1OC` [Example 185]: the concentration for half-maximal inhibition (IC50) was 400 to 1000 nM.

For the molecule `COc1ccc(C(=O)Nc2ccc(C(C)(C)CNC(=O)c3ccc4[nH]cnc4c3)cc2)cc1OC` [Example 207], the IC50 is 150 to 400 nM.

In the case of `COc1ccc(C(=O)Nc2ccc(C(C)(C)C#N)c(C)c2)cc1OC` [Example 95, N-[4-(Cyano-dimethyl-methyl)-3-methyl-phenyl]-3,4-dimethoxy-benzamide], the concentration for half-maximal inhibition (IC50) is 150 to 400 nM.

As to `COc1ccc(C(=O)Nc2ccc(C(C)(C)CNC(=O)c3cc(C)[nH]n3)cc2)cc1OC` [Example 127], the half-maximal inhibitory concentration (IC50) was 400 to 1000 nM.

Regarding `COc1ccc(C(=O)Nc2ccc(C(C)(C)CCNC(C)=O)c(-c3cccnc3)c2)cc1OC` [Example 221, N-(4-(4-acetamido-2-methylbutan-2-yl)-3-(pyridin-3-yl)-phenyl)-3,4-dimethoxybenzamide], the IC50 was 400 to 1000 nM.

Regarding `COc1ccc(C(=O)Nc2ccc(C(C)(C)CNC(=O)c3cnn4ccccc34)cc2)cc1OC` [Example 41], the concentration for half-maximal inhibition (IC50) was below 150 nM.

Turning to `COc1ccc(C(=O)Nc2ccc(C(C)(C)CNC(=O)c3ccc4c(c3)n(C)c(=O)n4C)cc2)cc1OC` [Example 210], the 50% inhibitory concentration (IC50) lay within 400 to 1000 nM.

`COc1ccc(C(=O)Nc2ccc(C(C)(C)CNC(=O)c3nn(C)c4ccccc34)c(Cl)c2)cc1OC` [Example 121, 1-Methyl-1H-indazole-3-carboxylic acid{2-[2-chloro-4-(3,4-dimethoxy-benzoylamino)-phenyl]-2-methyl-propyl}-amide]: the IC50 was in the range of 150 to 400 nM.
